According to the NIST ThermoML archive (doi:10.1016/j.jct.2015.02.009):
Numbers after ± are expanded uncertainties.

What was measured:
[1] = molar heat capacity at saturation pressure; details: Vacuum adiabatic calorimetry
[2] = Molar enthalpy of transition or fusion; details: Crystal 1; Adiabatic calorimetry
[3] = for molar entropy: 101.33 kPa, Vacuum adiabatic calorimetry; for Triple point temperature: Adiabatic calorimetry

O=c1c2ccccc2oc2ccccc12 [9H-xanthen-9-one]
Details	molar entropy, [3] [J/K/mol]	molar heat capacity, [1] [J/K/mol]
4.948 K, Crystal 2	–	0.4157 ± 0.017
5 K, Crystal 2	0.1497 ± 0.017	0.449 ± 0.025
5.884 K, Crystal 2	–	0.7317 ± 0.025
6.774 K, Crystal 2	–	1.131 ± 0.042
7.756 K, Crystal 2	–	1.68 ± 0.058
8.886 K, Crystal 2	–	2.494 ± 0.083
10 K, Crystal 2	1.189 ± 0.025	3.475 ± 0.042
10.01 K, Crystal 2	–	3.492 ± 0.033
11.15 K, Crystal 2	–	4.606 ± 0.042
12.42 K, Crystal 2	–	5.895 ± 0.05
13.82 K, Crystal 2	–	7.574 ± 0.067
15.41 K, Crystal 2	–	9.42 ± 0.075
17.21 K, Crystal 2	–	11.62 ± 0.083
19.14 K, Crystal 2	–	14.03 ± 0.1
20 K, Crystal 2	7.009 ± 0.075	15.07 ± 0.1
21.27 K, Crystal 2	–	16.62 ± 0.11
23.69 K, Crystal 2	–	19.61 ± 0.12
26.45 K, Crystal 2	–	22.93 ± 0.14
29.52 K, Crystal 2	–	26.48 ± 0.15
30 K, Crystal 2	15.42 ± 0.083	27.03 ± 0.075
32.99 K, Crystal 2	–	30.34 ± 0.083
36.76 K, Crystal 2	–	34.3 ± 0.083
40 K, Crystal 2	24.67 ± 0.11	37.43 ± 0.091
40.81 K, Crystal 2	–	38.18 ± 0.091
45.21 K, Crystal 2	–	42.3 ± 0.1
49.99 K, Crystal 2	–	46.39 ± 0.11
50 K, Crystal 2	34.01 ± 0.12	46.4 ± 0.11
55.3 K, Crystal 2	–	50.63 ± 0.12
60 K, Crystal 2	43.17 ± 0.15	54.19 ± 0.12
61.27 K, Crystal 2	–	55.12 ± 0.12
67.42 K, Crystal 2	–	59.55 ± 0.12
70 K, Crystal 2	52.07 ± 0.17	61.32 ± 0.13
74.05 K, Crystal 2	–	64.05 ± 0.13
80 K, Crystal 2	60.7 ± 0.19	68.05 ± 0.14
81.42 K, Crystal 2	–	68.99 ± 0.14
89.28 K, Crystal 2	–	74.02 ± 0.15
90 K, Crystal 2	69.08 ± 0.32	74.5 ± 0.22
97.77 K, Crystal 2	–	79.43 ± 0.22
100 K, Crystal 2	77.26 ± 0.32	80.83 ± 0.22
107.1 K, Crystal 2	–	85.28 ± 0.22
116.86 K, Crystal 2	–	91.41 ± 0.22
120 K, Crystal 2	93.11 ± 0.34	93.39 ± 0.22
126.79 K, Crystal 2	–	97.69 ± 0.23
136.84 K, Crystal 2	–	104.11 ± 0.24
140 K, Crystal 2	108.46 ± 0.37	106.16 ± 0.24
146.73 K, Crystal 2	–	110.54 ± 0.25
156.73 K, Crystal 2	–	117.13 ± 0.25
160 K, Crystal 2	123.49 ± 0.39	119.31 ± 0.26
166.81 K, Crystal 2	–	123.9 ± 0.26
176.93 K, Crystal 2	–	130.77 ± 0.27
180 K, Crystal 2	138.32 ± 0.42	132.89 ± 0.27
187.03 K, Crystal 2	–	137.78 ± 0.27
197.16 K, Crystal 2	–	144.95 ± 0.28
200 K, Crystal 2	153.04 ± 0.44	146.97 ± 0.28
207.33 K, Crystal 2	–	152.23 ± 0.29
217.49 K, Crystal 2	–	159.6 ± 0.3
220 K, Crystal 2	167.73 ± 0.47	161.45 ± 0.3
227.64 K, Crystal 2	–	167.1 ± 0.31
237.79 K, Crystal 2	–	174.59 ± 0.32
240 K, Crystal 2	182.41 ± 0.49	176.23 ± 0.32
247 K, Crystal 2	–	181.5 ± 0.32
257.21 K, Crystal 2	–	189.32 ± 0.33
260 K, Crystal 2	197.12 ± 0.52	191.47 ± 0.34
267.43 K, Crystal 2	–	197.24 ± 0.34
271.49 K, Crystal 2	–	200.45 ± 0.35
277.66 K, Crystal 2	–	205.34 ± 0.35
280 K, Crystal 2	211.88 ± 0.54	207.28 ± 0.36
281.58 K, Crystal 2	–	208.68 ± 0.36
285.78 K, Crystal 2	–	211.94 ± 0.36
287.89 K, Crystal 2	–	213.62 ± 0.37
287.93 K, Crystal 2	–	213.81 ± 0.37
290.92 K, Crystal 2	–	216.28 ± 0.37
293.89 K, Crystal 2	–	218.7 ± 0.37
296.84 K, Crystal 2	–	221.36 ± 0.37
298.15 K, Crystal 2	225.36 ± 0.57	222.59 ± 0.37
299.77 K, Crystal 2	–	224.22 ± 0.37
300 K, Crystal 2	226.74 ± 0.57	224.32 ± 0.37
302.68 K, Crystal 2	–	226.91 ± 0.37
304.5 K, Crystal 1	230.12 ± 0.57	217.42 ± 0.37
304.5 K, Crystal 2	230.12 ± 0.57	228.82 ± 0.38
308.54 K, Crystal 1	–	220.52 ± 0.37
314.52 K, Crystal 1	–	224.74 ± 0.37
319.05 K, Crystal 1	–	228.22 ± 0.38
320 K, Crystal 1	241.19 ± 0.59	228.78 ± 0.38
329.4 K, Crystal 1	–	234.88 ± 0.39
339.75 K, Crystal 1	–	241.96 ± 0.4
340 K, Crystal 1	255.47 ± 0.62	242.13 ± 0.4
350.05 K, Crystal 1	–	248.91 ± 0.41
360 K, Crystal 1	269.69 ± 0.64	255.59 ± 0.41
360.25 K, Crystal 1	–	255.74 ± 0.42
370.5 K, Crystal 1	–	262.7 ± 0.42
380 K, Crystal 1	283.87 ± 0.67	269.01 ± 0.42
380.94 K, Crystal 1	–	269.61 ± 0.42
391.39 K, Crystal 1	–	276.39 ± 0.43
400 K, Crystal 1	298 ± 0.69	281.96 ± 0.44
401.81 K, Crystal 1	–	283.12 ± 0.44
403.54 K, Crystal 1	–	284.25 ± 0.45
411.03 K, Crystal 1	–	289 ± 0.45
412.19 K, Crystal 1	–	289.73 ± 0.45
416.69 K, Crystal 1	–	292.58 ± 0.46
419.61 K, Crystal 1	–	294.44 ± 0.46
420 K, Crystal 1	312.06 ± 0.72	294.67 ± 0.46
422.49 K, Crystal 1	–	296.32 ± 0.46
426.25 K, Crystal 1	–	298.77 ± 0.47
426.89 K, Crystal 1	–	299.05 ± 0.47
428.37 K, Crystal 1	–	300.06 ± 0.47
432.6 K, Crystal 1	–	302.78 ± 0.47
434.54 K, Crystal 1	–	304.24 ± 0.47
436.39 K, Crystal 1	–	305.61 ± 0.47
436.87 K, Crystal 1	–	305.89 ± 0.47
437 K, Crystal 1	–	305.66 ± 0.47
438.34 K, Crystal 1	–	306.66 ± 0.47
440 K, Crystal 1	326.08 ± 0.74	307.81 ± 0.47
441.53 K, Crystal 1	–	308.59 ± 0.47
444.48 K, Crystal 1	–	310.76 ± 0.47
448.8 K, Crystal 1	332.22 ± 0.76	313.35 ± 0.48
448.8 K, Liquid	393.44 ± 0.86	352.72 ± 0.52
456.71 K, Liquid	–	355.95 ± 0.53
456.82 K, Liquid	–	356.07 ± 0.53
456.9 K, Liquid	–	356.08 ± 0.53
460 K, Liquid	402.2 ± 0.88	357.33 ± 0.53
465.07 K, Liquid	–	359.58 ± 0.53
465.9 K, Liquid	–	359.81 ± 0.53
476.6 K, Liquid	–	364.34 ± 0.54
480 K, Liquid	417.58 ± 0.91	365.74 ± 0.54
488.56 K, Liquid	–	369.25 ± 0.55
497.53 K, Liquid	–	372.95 ± 0.55
500 K, Liquid	432.68 ± 0.93	374.07 ± 0.55
500.95 K, Liquid	–	374.47 ± 0.55
512.38 K, Liquid	–	379.19 ± 0.56
520 K, Liquid	447.51 ± 0.96	382.26 ± 0.57
521.08 K, Liquid	–	382.68 ± 0.57

Details	Molar enthalpy of transition or fusion [kcal/mol]
[2]	6.567 ± 0.00813

Details	mass density [kg/m3]
[3], 473 K, Liquid, Pycnometric method	1090 ± 20

[3]
Details	Triple point temperature [K]
Crystal 1	448.8 ± 0.041
Crystal 2	304.5 ± 0.05
